# Measurements taken from publication PMC8546428, “Convergent olfactory trace amine-associated receptors detect biogenic polyamines with distinct motifs via a conserved binding site” (The Journal of Biological Chemistry, 2021).
# Changes are numbered by the printed parent chain.
# Tests used:
# mTAAR8c = target: T1, mTAAR8c (Mus musculus, UniProt Q5QD05); test: CRE-luciferase reporter assay in Hana3A, mouse olfactory TAARs; type: cell-based; conditions: ligand 500 μM, Fig. 1D
# T1 construct: expressed in transfected cells; host or cells: Hana3A (HEK293-derived)
# Protocol: (§1) Mammalian TAAR9 plasmids were transfected into Hana3A cells along with a cAMP-dependent luciferase reporter plasmid (CRE-Luc). Transfected cells were incubated with tested ligands, and luciferase activity was quantified with a […] substrate as a reporter for Golf-mediated TAAR activation. Luciferase activity was indicated by the luminescence value and normalized as a fold-increase over the response to the vehicle stimuli (mean ± S.D., n = 3). […] B, Hana3A cells expressing mouse, rat, human, cat, hamster, and rabbit TAAR9 were incubated with either vehicle or tested ligands (1 mM) and assayed for reporter activity. C, concentration-dependent luciferase activity in Hana3A cells expressing mouse, rat, and cat TAAR9 receptors stimulated with cadaverine, spermidine, and spermine.
# (§2) We then sought to determine if other mouse olfactory TAARs are activated by the mTAAR9 ligands.
# (§3) The firefly luciferase and renilla luciferase activity was measured with a BioTek microplate reader following manufacturer’s instructions.
# mTAAR9 W7.40A = target: T2, mTAAR9 W7.40A (Mus musculus, UniProt Q5QD04, W298A); test: CRE-luciferase reporter assay, mTAAR9 mutant in Hana3A; type: cell-based; conditions: read-out: EC50 (mean ± S.D., n = 3)
# T2 construct: expressed in transfected cells; host or cells: Hana3A (HEK293-derived)
# T2 sequence (Q5QD04 1-348 W298A): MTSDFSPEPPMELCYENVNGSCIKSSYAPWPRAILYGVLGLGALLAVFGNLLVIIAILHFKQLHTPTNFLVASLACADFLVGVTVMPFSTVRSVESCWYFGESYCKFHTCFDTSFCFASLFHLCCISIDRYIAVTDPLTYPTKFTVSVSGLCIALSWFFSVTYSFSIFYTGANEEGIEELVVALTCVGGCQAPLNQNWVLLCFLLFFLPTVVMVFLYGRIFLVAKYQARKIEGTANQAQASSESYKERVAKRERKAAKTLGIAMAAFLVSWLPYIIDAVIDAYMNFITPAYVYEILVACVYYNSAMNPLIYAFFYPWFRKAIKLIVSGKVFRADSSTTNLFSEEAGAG
# mTAAR9 W7.40Y = target: T3, mTAAR9 W7.40Y (Mus musculus, UniProt Q5QD04, W298Y); test: as above; type: cell-based; conditions: read-out: EC50 (mean ± S.D., n = 3)
# T3 construct: expressed in transfected cells; host or cells: Hana3A (HEK293-derived)
# mTAAR9 E7.36D = target: T4, mTAAR9 E7.36D (Mus musculus, UniProt Q5QD04, E294D); test: as above; type: cell-based; conditions: read-out: EC50 (mean ± S.D., n = 3)
# T4 construct: expressed in transfected cells; host or cells: Hana3A (HEK293-derived)
# T4 sequence (Q5QD04 1-348 E294D): T2 sequence (Q5QD04 1-348 W298A) with E294D, A298W
# mTAAR9 Y6.51W = target: T5, mTAAR9 Y6.51W (Mus musculus, UniProt Q5QD04, Y274W); test: as above; type: cell-based; conditions: read-out: EC50 (mean ± S.D., n = 3)
# T5 construct: expressed in transfected cells; host or cells: Hana3A (HEK293-derived)
# T5 sequence (Q5QD04 1-348 Y274W): T2 sequence (Q5QD04 1-348 W298A) with Y274W, A298W
# Rat TAAR9 = target: T6, Rat TAAR9 (Rattus norvegicus, UniProt Q923Y6); test: CRE-luciferase reporter assay in Hana3A; type: cell-based; conditions: rat TAAR9, ligand 1 mM, Fig. 1B
# T6 construct: expressed in transfected cells; host or cells: Hana3A (HEK293-derived)
# T6 sequence (Q923Y6 1-338): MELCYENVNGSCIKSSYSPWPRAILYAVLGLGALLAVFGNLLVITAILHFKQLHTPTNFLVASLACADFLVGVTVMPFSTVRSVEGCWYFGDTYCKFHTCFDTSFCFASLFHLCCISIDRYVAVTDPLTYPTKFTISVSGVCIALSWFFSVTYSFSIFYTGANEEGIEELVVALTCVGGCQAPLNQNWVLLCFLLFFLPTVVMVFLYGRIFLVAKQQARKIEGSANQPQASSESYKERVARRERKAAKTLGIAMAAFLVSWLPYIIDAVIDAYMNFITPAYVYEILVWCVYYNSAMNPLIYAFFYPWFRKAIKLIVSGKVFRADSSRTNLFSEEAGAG
# Protocol: We examined the response of TAAR9s from rat, human, hamster, and rabbit to the stimulation of 1 mM amines using a well-established cAMP response element (CRE)-driven luciferase reporter assay based on Golf-mediated cAMP signal transduction ([5], [24]). In addition to the four mTAAR9 ligands, we included putrescine, which is also a polyamine and precursor of spermine/spermidine biosynthesis.
# as §1, §3
# WT mTAAR9 = target: T7, WT mTAAR9 (Mus musculus, UniProt Q5QD04); test: CRE-luciferase reporter assay, wild-type mTAAR9 in Hana3A; type: cell-based; conditions: WT mTAAR9, Hana3A, CRE-luciferase; read-out: EC50 (mean ± S.D., n = 3)
# T7 construct: Rho-tag (first 20 amino acids of bovine rhodopsin) (N); expressed in transfected cells; host or cells: Hana3A (HEK293-derived)
# T7 sequence (Q5QD04 1-348): T2 sequence (Q5QD04 1-348 W298A) with A298W
# Protocol: as §1, §3
# mTAAR9 W7.40F = target: T8, mTAAR9 W7.40F (Mus musculus, UniProt Q5QD04, W298F); test: CRE-luciferase reporter assay, mTAAR9 mutant in Hana3A; type: cell-based; conditions: read-out: EC50 (mean ± S.D., n = 3)
# T8 construct: expressed in transfected cells; host or cells: Hana3A (HEK293-derived)
# T8 sequence (Q5QD04 1-348 W298F): T2 sequence (Q5QD04 1-348 W298A) with A298F
# mTAAR7f = mTAAR7f (Mus musculus, UniProt Q5QD08); conditions: ligand 500 μM, Fig. 1D
# Protocol: as §1, §2, §3
# mTAAR5 = mTAAR5 (Mus musculus, UniProt Q5QD14); conditions: mTAAR5, ligand 500 μM, Fig. 1D
# Protocol: as §1, §2, §3
# T1 sequence (Q5QD05 whole entry): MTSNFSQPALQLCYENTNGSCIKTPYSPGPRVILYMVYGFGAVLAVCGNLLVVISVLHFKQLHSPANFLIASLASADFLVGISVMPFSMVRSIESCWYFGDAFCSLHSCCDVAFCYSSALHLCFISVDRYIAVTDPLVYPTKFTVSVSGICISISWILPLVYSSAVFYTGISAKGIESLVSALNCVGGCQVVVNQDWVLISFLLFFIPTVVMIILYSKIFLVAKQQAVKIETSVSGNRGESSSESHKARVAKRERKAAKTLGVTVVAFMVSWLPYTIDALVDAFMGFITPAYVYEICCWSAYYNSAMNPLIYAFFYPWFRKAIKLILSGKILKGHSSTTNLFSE
# T3 sequence (Q5QD04 whole entry W298Y): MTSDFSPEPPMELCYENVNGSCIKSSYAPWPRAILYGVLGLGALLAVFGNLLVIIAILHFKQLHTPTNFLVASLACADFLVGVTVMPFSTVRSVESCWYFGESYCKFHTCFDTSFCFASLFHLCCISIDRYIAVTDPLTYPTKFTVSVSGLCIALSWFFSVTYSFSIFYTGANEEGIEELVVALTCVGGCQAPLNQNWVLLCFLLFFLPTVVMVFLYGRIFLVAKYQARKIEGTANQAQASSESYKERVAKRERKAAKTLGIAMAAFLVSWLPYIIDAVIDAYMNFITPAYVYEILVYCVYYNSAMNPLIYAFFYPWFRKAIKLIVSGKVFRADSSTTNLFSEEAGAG
# mTAAR5, sequence (Q5QD14 whole entry): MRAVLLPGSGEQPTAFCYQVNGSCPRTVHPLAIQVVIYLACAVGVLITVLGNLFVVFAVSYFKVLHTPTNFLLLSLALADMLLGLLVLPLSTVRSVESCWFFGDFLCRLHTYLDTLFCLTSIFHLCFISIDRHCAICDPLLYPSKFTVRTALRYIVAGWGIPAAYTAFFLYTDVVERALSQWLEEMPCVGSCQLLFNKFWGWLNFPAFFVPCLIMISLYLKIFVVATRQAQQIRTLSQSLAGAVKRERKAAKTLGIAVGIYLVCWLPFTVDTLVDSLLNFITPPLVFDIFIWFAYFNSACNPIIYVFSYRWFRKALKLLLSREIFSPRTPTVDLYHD
# mTAAR7f, sequence (Q5QD08 whole entry): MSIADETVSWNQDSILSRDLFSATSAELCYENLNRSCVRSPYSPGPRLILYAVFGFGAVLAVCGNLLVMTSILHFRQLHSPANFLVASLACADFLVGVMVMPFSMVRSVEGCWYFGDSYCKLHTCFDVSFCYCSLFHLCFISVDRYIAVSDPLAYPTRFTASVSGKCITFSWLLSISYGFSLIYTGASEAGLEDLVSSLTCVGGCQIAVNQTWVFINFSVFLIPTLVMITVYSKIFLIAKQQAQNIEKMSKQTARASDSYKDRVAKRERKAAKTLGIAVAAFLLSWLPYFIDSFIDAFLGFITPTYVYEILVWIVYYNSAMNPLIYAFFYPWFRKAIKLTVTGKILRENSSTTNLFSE
SMILES,reporter activity (mTAAR8c),EC50 (mTAAR9 W7.40A),EC50 (mTAAR9 W7.40Y),EC50 (mTAAR9 E7.36D),EC50 (mTAAR9 Y6.51W),reporter activity (activation of TAAR9) (Rat TAAR9),EC50 (WT mTAAR9),EC50 (mTAAR9 W7.40F),reporter activity (mTAAR7f),reporter activity (mTAAR5)
NCCCCNCCCN [spermidine],modest activity,68 ± 48 µM,2 ± 0.5 µM,142 ± 43 µM,> 1000 µM,maximum responses,43 ± 7 µM,9 ± 7 µM,,
CCN(CC)CC [triethylamine],moderate activities,> 1000 µM,,> 1000 µM,355 ± 80 µM,,251 ± 82 µM,36 ± 16 µM,robust responses,moderate activities
